In assay [1] the test system is differentiated adipocytes. Nature of the assay: Glucose uptake by the adipocytes (2-NBDG glucose uptake assay kit) in microfluidic device. It counts as cell-based, human. The procedure: (§1) Cell Culture: In vitro model of the human inflamed adipose tissue (adipocyte/immune cell coculture): Prior to seeding the cells into the microfluidic device, the fluidic compartments underwent a sterilization process by filling them with 70% ethanol for a minimum of 4 hours. Afterward, the microfluidic devices were washed with deionized water, and each microfluidic device was loaded with 100 μL of Poly-L-lysine solution (0.1 mg/mL in H2O) and incubated overnight at 37° C. The microfluidic devices were then washed again, first with sterilized deionized water and then with phosphate-buffered saline (PBS). Next, the microfluidic devices were primed with a preadipocyte growth medium from (Cell Applications). […] Cell viability and morphological changes were monitored using a microscope. […] The concentrations of Tumor Necrosis Factor (TNFα) and Interleukin-6 (IL-6) in the supernatants were measured using an ELISA method. […] The percentage of calcein-AM-labeled cells was used to quantify cell viability. The growth and morphology of the cells were regularly monitored under the microscope. […] To assess cell differentiation of the adipocytes, the lipid content within adipocytes was monitored by staining the lipid droplets with Oil Red O (Sigma-Aldrich, St. Louis, MO, USA). […]

Assay [2] concerns Adipocytes and U937 cells. Nature of the assay: Cytokine immunoassay (ELISA) of supernatants from adipocyte/immune cell co-culture in VasChip3x2 microfluidic device. The class given is cell-based, human. To be noted: inflammation state induced with 100 ng/ml LPA. The procedure:
as §1
(In an ELISA, binding on a coated surface is turned into a signal by an enzyme label.)

For insulin, the glucose uptake entry in assay [1] (adipocyte monoculture, after insulin treatment) is listed as “significant glucose uptake”.
With lysophosphatidic acid [LPA], the “cytokine secretion (TNF and IL-6 in the supernatants)” value in assay [2] is “significant increase”. In assay [1] (adipocyte/U937 co-culture, inflammation state induced with 100 ng/ml LPA), the glucose uptake entry is recorded as “decrease”.

The values are drawn from patent publication US12270016B1, “Structure and function of modular microfluidic device for in-vitro modeling of human organs” (Alfaisal University, priority 2024, dated 2025).
